Laboratory results as given in patent US7151105B2, “Inhibitors of Hepatitis C virus RNA-dependent RNA polymerase, and compositions and treatments using the same” (Agouron Pharmaceuticals, Inc., priority 2004, dated 2006).

target: T1, Recombinant HCV polymerase (Hepatitis C virus genotype 1b, UniProt P26663); assay: biochemical; conditions: inhibition of polymerase-directed transcription; 30 min at 30° C; 30 nM enzyme; cpm data in triplicate
T1 construct: Recombinant HCV polymerase was tested for its ability to perform primer/template-directed transcription
Protocol: The compounds described herein were tested for activity with HCV polymerase. Recombinant HCV polymerase was tested for its ability to perform primer/template-directed transcription in assays that contained 30 mM tris-HCl pH 7.2, 10 mM MgCl2, 20 mM NaCl, 1 mM Dithiothreitol (DTT), 0.05% Tween-20, 1% glycerol, 5 pmoles biotin-dG12 (primer), 0.5 pmoles poly(rC)300 (template), 1 μM GTP, 0.1–0.3 uCi α-^32P-GTP, and 2.5 pmoles (0.15 μg) HCV polymerase protein in a final volume of 75 μL. Reactions were initiated by addition of enzyme and incubated 30 minutes at 30° C. Reactions were stopped by addition of 33 mM EDTA, and polynucleotide products were collected by filtration through Diethylaminoethyl (DE) Filtermat papers (Wallac). Unincorporated triphosphate was removed by washing the filters with 5% dibasic sodium phosphate. The filters were counted in a Packard Tri-Lux Microbeta scintillation counter (Packard Bioscience, Meriden, Conn.). Compounds to be tested were added at various concentrations, e.g., 1 μm to 50 μm, from stocks in 10% DMSO-water (final DMSO is 1% in reaction).
IC50 values were estimated from the primary cpm data (collected in triplicate) using the formula: cpm (I)=cpm (no inhibitor)(1−([I]/([I]+IC50))). […] A percent inhibition value is expressed for a compound where it was impractical to calculate an IC50 value with available data.

T1 sequence (P26663 2420-3010): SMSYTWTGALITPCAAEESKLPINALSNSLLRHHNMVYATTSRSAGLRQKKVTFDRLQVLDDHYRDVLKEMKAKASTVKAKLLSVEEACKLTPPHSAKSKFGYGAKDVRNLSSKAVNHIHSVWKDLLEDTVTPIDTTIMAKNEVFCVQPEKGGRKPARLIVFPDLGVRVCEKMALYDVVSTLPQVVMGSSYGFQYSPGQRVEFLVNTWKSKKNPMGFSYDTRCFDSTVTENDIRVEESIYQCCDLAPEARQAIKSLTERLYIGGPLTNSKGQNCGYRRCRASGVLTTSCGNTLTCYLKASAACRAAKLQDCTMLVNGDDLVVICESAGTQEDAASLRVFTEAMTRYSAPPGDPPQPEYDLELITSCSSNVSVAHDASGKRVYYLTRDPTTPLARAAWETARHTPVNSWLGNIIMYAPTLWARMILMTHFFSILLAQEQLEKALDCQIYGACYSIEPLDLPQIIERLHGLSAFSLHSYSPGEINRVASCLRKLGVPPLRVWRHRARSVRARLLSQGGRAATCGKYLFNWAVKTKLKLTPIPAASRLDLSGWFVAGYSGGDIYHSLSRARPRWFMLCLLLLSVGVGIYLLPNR

Compound | IC50
CCOc1cc(O)c(CC)cc1CCC1(C2CCCC2)CC(O)=C(Cc2nc3nc(C)cc(C)n3n2)C(=O)O1 (single isomer, unassigned) [A(30), 6-Cyclopentyl-3-[(5,7-dimethyl[1,2,4]triazolo[1,5-a]pyrimidin-2-yl)methyl]-[-6–2-(2-ethoxy-5-ethyl-4-hydroxyphenyl)ethyl]-4-hydroxy-5,6-dihydro-2H-pyran-2-one] | 4 nM
CCOc1cc(O)c(CC)cc1CCC1(C2CCCC2)CC(O)=C(Cc2nc3nc(C)cc(C)n3n2)C(=O)O1 (single isomer, unassigned) [A(31), 6-Cyclopentyl-3-[(5,7-dimethyl[1,2,4]triazolo[1,5-a]pyrimidin-2-yl)methyl]-6-[2-(2-ethoxy-5-ethyl-4-hydroxyphenyl)ethyl]-4-hydroxy-5,6-dihydro-2H-pyran-2-one] | 6 nM
CCc1cc(CCC2(C3CCCC3)CC(O)=C(Cc3nc4nc(C)cc(C)n4n3)C(=O)O2)c(OC)cn1 (single isomer, unassigned) [A(38), 6-Cyclopentyl-3-[(5,7-dimethyl[1,2,4]triazolo[1,5-a]pyrimidin-2-yl)methyl]-6-[2-(2-ethyl-5-methoxypyridin-4-yl)ethyl]-4-hydroxy-5,6-dihydro-2H-pyran-2-one] | 3 nM
CCc1cc(CCC2(C3CCCC3)CC(O)=C(Cc3nc4nc(C)cc(C)n4n3)C(=O)O2)c(OC)cn1 (single isomer, unassigned) [A(39), 6-Cyclopentyl-3-[(5,7-dimethyl[1,2,4]triazolo[1,5-a]pyrimidin-2-yl)methyl]-6-[2-(2-ethyl-5-methoxypyridin-4-yl)ethyl]-4-hydroxy-5,6-dihydro-2H-pyran-2-one] | 6 nM
CCc1cc(CCC2(C3CCCC3)CC(O)=C(Cc3nc4nc(C)cc(C)n4n3)C(=O)O2)ccn1 (single isomer, unassigned) [A(44), 6-Cyclopentyl-3-[(5,7-dimethyl[1,2,4]triazolo[1,5-a]pyrimidin-2-yl)methyl]-6-[2-(2-ethylpyridin-4-yl)ethyl]-4-hydroxy-5,6-dihydro-2H-pyran-2-one] | 7 nM
CCc1cc(CCC2(C3CCCC3)CC(O)=C(Cc3nc4nc(C)cc(C)n4n3)C(=O)O2)ccn1 (single isomer, unassigned) [A(45), 6-Cyclopentyl-3-[(5,7-dimethyl[1,2,4]triazolo[1,5-a]pyrimidin-2-yl)methyl]-6-[2-(2-ethylpyridin-4-yl)ethyl]-4-hydroxy-5,6-dihydro-2H-pyran-2-one] | 14 nM
CCOc1cnc(CC)cc1CCC1(C2CCCC2)CC(O)=C(Cc2nc3nc(C)cc(C)n3n2)C(=O)O1 (single isomer, unassigned) [A(51), 6-Cyclopentyl-3-[(5,7-dimethyl[1,2,4]triazolo[1,5-a]pyrimidin-2-yl)methyl]-6-[2-(5-ethoxy-2-ethylpyridin-4-yl)ethyl]-4-hydroxy-5,6-dihydro-2H-pyran-2-one] | 3 nM
CCOc1cnc(CC)cc1CCC1(C2CCCC2)CC(O)=C(Cc2nc3nc(C)cc(C)n3n2)C(=O)O1 (single isomer, unassigned) [A(52), 6-cyclopentyl-3-[(5,7-dimethyl[1,2,4]triazolo[1,5-a]pyrimidin-2-yl)methyl]-6-[2-(5-ethoxy-2-ethylpyridin-4-yl)ethyl]-4-hydroxy-5,6-dihydro-2H-pyran-2-one] | 3 nM

Other lines, results leading:

IC50 | Compound
10 nM | CCc1cc(CCC2(C3CCCC3)CC(O)=C(Cc3nc4nc(C)cc(C)n4n3)C(=O)O2)ccc1CN(C)C (racemic) [A(119), 6-cyclopentyl-6-(2-{4-[(dimethylamino)methyl]-3-ethylphenyl}ethyl)-3-[(5,7-dimethyl[1,2,4]triazolo[1,5-a]pyrimidin-2-yl)methyl]-4-hydroxy-5,6-dihydro-2H-pyran-2-one]
39 nM | CCc1cc(CCC2(C3CCCC3)CC(O)=C(Cc3nc4nc(C)cc(C)n4n3)C(=O)O2)ccc1CN1CCOCC1 (racemic) [A(123), 6-cyclopentyl-3-[(5,7-dimethyl[1,2,4]triazolo[1,5-a]pyrimidin-2-yl)methyl]-6-{2-[3-ethyl-4-(morpholin-4-ylmethyl)phenyl]ethyl}-4-hydroxy-5,6-dihydro-2H-pyran-2-one]
28 nM | CCc1cc(CCC2(C3CCCC3)CC(O)=C(Cc3nc4nc(C)cc(C)n4n3)C(=O)O2)ccc1CO (racemic) [B(33), 6-Cyclopentyl-3-[(5,7-dimethyl[1,2,4]triazolo[1,5-a]pyrimidin-2-yl)methyl]-6-{2-[3-ethyl-4-(hydroxymethyl)phenyl]ethyl}-4-hydroxy-5,6-dihydro-2H-pyran-2-one]
5 nM | Cc1cc(C)n2nc(CC3=C(O)CC(CCc4ccc(C(C)(C)C#N)c(C(F)(F)F)c4)(C4CCCC4)OC3=O)nc2n1 (racemic) [Example B(28), 2-[4-(2-{2-cyclopentyl-5-[(5,7-dimethyl[1,2,4]triazolo[1,5-a]pyrimidin-2-yl)methyl]-4-hydroxy-6-oxo-3,6-dihydro-2H-pyran-2-yl}ethyl)-2-(trifluoromethyl)phenyl]-2-methylpropanenitrile]
12 nM | Cc1cc(C)n2nc(CC3=C(O)CC(CCc4cnc(C(C)(C)C#N)c(Cl)c4)(C4CCCC4)OC3=O)nc2n1 (racemic) [Example B(39), 2-[3-chloro-5-(2-{2-cyclopentyl-5-[(5,7-dimethyl[1,2,4]triazolo[1,5-a]pyrimidin-2-yl)methyl]-4-hydroxy-6-oxo-3,6-dihydro-2H-pyran-2-yl}ethyl)pyridin-2-yl]-2-methylpropanenitrile]
3 nM | CCCOc1cnc(CC)cc1CCC1(C2CCCC2)CC(O)=C(Cc2nc3nc(C)cc(C)n3n2)C(=O)O1 (single isomer, unassigned) [A(53), 6-Cyclopentyl-3-[(5,7-dimethyl[1,2,4]triazolo[1,5-a]pyrimidin-2-yl)methyl]-6-[2-(2-ethyl-5-propoxypyridin-4-yl)ethyl]-4-hydroxy-5,6-dihydro-2H-pyran-2-one]
3 nM | CCCOc1cnc(CC)cc1CCC1(C2CCCC2)CC(O)=C(Cc2nc3nc(C)cc(C)n3n2)C(=O)O1 (single isomer, unassigned) [A(54), 6-Cyclopentyl-3-[(5,7-dimethyl[1,2,4]triazolo[1,5-a]pyrimidin-2-yl)methyl]-6-[2-(2-ethyl-5-propoxypyridin-4-yl)ethyl]-4-hydroxy-5,6-dihydro-2H-pyran-2-one]
2 nM | CCOc1cnc(CC)cc1CCC1(C2CCCC2)CC(O)=C(Cc2nc3ncc(C)cn3n2)C(=O)O1 (single isomer, unassigned) [A(55), 6-Cyclopentyl-6-[2-(5-ethoxy-2-ethylpyridin-4-yl)ethyl]-4-hydroxy-3-[(6-methyl[1,2,4]triazolo[1,5-a]pyrimidin-2-yl)methyl]-5,6-dihydro-2H-pyran-2-one]
4 nM | CCOc1cnc(CC)cc1CCC1(C2CCCC2)CC(O)=C(Cc2nc3ncc(C)cn3n2)C(=O)O1 (single isomer, unassigned) [A(56), 6-Cyclopentyl-6-[2-(5-ethoxy-2-ethylpyridin-4-yl)ethyl]-4-hydroxy-3-[(6-methyl[1,2,4]triazolo[1,5-a]pyrimidin-2-yl)methyl]-5,6-dihydro-2H-pyran-2-one]
3 nM | CCOc1cc(O)c(CC)cc1CCC1(C2CCCC2)CC(O)=C(Cc2nc3ncc(C)cn3n2)C(=O)O1 (single isomer, unassigned) [A(57), 6-Cyclopentyl-6-[2-(2-ethoxy-5-ethyl-4-hydroxyphenyl)ethyl]-4-hydroxy-3-[(6-methyl[1,2,4]triazolo[1,5-a]pyrimidin-2-yl)methyl]-5,6-dihydro-2H-pyran-2-one]
